Measurements as given in US6573254B1, “Method for the stimulation of sperm production and gonadal development in animals” (University of Maryland, priority 1998, dated 2003).

Columns and labels:
male broiler chicks [1] = experiment: 0.2% SMZ in starter ration during genetic selection phase of broilerization, from one week of age; type: in vivo, chicken
From the text: FIG. 4 depicts a bar graph showing the testes response resulting from the “genetic selection” phase of broilerization (see FIG. 1) plus 0.2% sulfamethazine (SMZ) added to a standard starter ration at one week of age.
FIGS. 5A and 5B depict graphs showing weekly levels of plasma luteinizing hormone (LH; 5A) and follicle stimulating hormone (FSH; 5B) in male broiler chicks fed a diet with 0.2% SMZ beginning at one week of age (*=p[…]0.05).
(§1) Blood samples were taken starting at day of SMZ administration and weekly following initiation of the treatment.

broiler chicks [2] = experiment: 0.2% SMZ in standard broiler ration, one to four weeks of age, continuous light versus LD 8:16; type: in vivo, chicken; conditions: 1-4 weeks of age
Experimental: FIG. 9 depicts a bar graph showing testes weight following 0.2% SMZ (1-4 weeks of age) in chicks exposed to LD 24:0 or LD 8:16.
In a further study using broiler chicks, SMZ at 0.2% was added to a standard broiler ration and fed to chicks from one to four weeks of age. One group was raised under continuous light while a second group was exposed to a photoperiod of LD 8:16. […] Although food intake was not measured in this experiment, body weight was taken at the beginning and end of the study. […] Sulfamethazine has a stimulatory effect upon testes growth when chicks are exposed to a long photoperiod. One possible interpretation is that SMZ appears to facilitate or amplify the stimulatory effect of long-day light on gonadal development in male chicks.

male broiler chicks [3] = experiment: Daily plasma LH immediately following dietary administration of 0.2% SMZ, from one week of age; type: in vivo, chicken; conditions: 0.2% SMZ diet from one week of age, FIG. 6
From the text: FIG. 6 depicts a graph showing daily levels of LH immediately following dietary administration of 0.2% SMZ, beginning at one week of age (*=p<0.05).
as §1

broiler chicks [4] = conditions: cited from earlier work
broiler breeders = experiment: 0.2% SMZ in grower diet during photoperiodic phase of broilerization (weeks 20-28, LD 14:10); type: in vivo, chicken; conditions: p≦0.05
From the text: FIGS. 7A and 7B depict bar graphs showing testis weight response (7A) and plasma LH (7B) resulting from the “photoperiodic” phase of broilerization plus 0.2% SMZ added to a grower diet from 20 to 28 weeks of age. Testes and blood were sampled at 28 weeks of age. Photoperiod=LD 14:10.
FIGS. 8A and 8B show plasma FSH (8A) and testosterone (8B) resulting from blood samples taken as described with respect to FIGS. 7A and 7B.

chicks = conditions: ICV administration to chicks; cited from earlier work

Compound | plasma luteinizing hormone (LH), weekly levels (male broiler chicks [1]; 0.2% SMZ diet from one week of age, weekly blood samples, FIG. 5A) | plasma follicle stimulating hormone (FSH), weekly levels (male broiler chicks [1]; 0.2% SMZ diet from one week of age, weekly blood samples, FIG. 5B) | rate of testes growth (male broiler chicks [1]; 0.2% SMZ in starter ration from one week of age, FIG. 4) | semen production (male broiler chicks [1]; 0.2% SMZ in starter ration, by nine weeks of age) | testes growth (broiler chicks [2]; continuous light (LD 24:0), p≦0.05, FIG. 9) | progonadal effects (testes weight) (broiler chicks [2]; short photoperiod LD 8:16, FIG. 9) | body weight, long-day versus short-day SMZ treated groups (broiler chicks [2]; weighed at beginning and end of study) | time until plasma LH was significantly elevated after consuming feed containing SMZ (male broiler chicks [3]) [h] | plasma gonadotropins (broiler chicks [4]; broiler chicks) | testes development (broiler chicks [4]; broiler chicks) | thyroid hormone (broiler chicks [4]; broiler chicks) | number of immuno-stained neuropeptide Y (NPY) neurons (broiler chicks [4]; broiler chicks, mediobasal hypothalamus and infundibular nucleus (IN)) | comb coloration (side effect) (broiler chicks [4]; chronic use of SMZ) | size of comb and testes (side effect) (broiler chicks [4]; chronic use of SMZ) | plasma LH (broiler breeders; 0.2% SMZ weeks 20-28, LD 14:10, blood at week 28, FIG. 7B) | plasma FSH (broiler breeders; 0.2% SMZ weeks 20-28, LD 14:10, blood at week 28, FIG. 8A) | plasma testosterone (broiler breeders; 0.2% SMZ weeks 20-28, LD 14:10, blood at week 28, FIG. 8B) | testis weight versus controls (broiler breeders; 0.2% SMZ weeks 20-28, LD 14:10, sampled at 28 weeks, FIG. 7A) | growth of the testes (chicks)
Cc1cc(C)nc(NS(=O)(=O)c2ccc(N)cc2)n1 [SMZ, Sulfamethazine] | significantly increased | significantly increased | significantly increased | produced viable semen | significantly elevated | markedly attenuated | No significant difference | ≤ 48 | increases | significantly increases | transiently suppresses | increases | marked red coloration of the comb | increased size of both comb and testes | significantly elevated | significantly elevated | significantly elevated | significantly heavier than controls | 
neuropeptide Y [NPY] |  |  |  |  |  |  |  |  |  |  |  |  |  |  |  |  |  |  | stimulates
